Assay results: patent publication US11066481B2, “Antibodies to coagulation factor XIa and uses thereof” (THE REGENTS OF THE UNIVERSITY OF CALIFORNIA, priority 2015, dated 2021)

Legend:
rabbit cuticle bleeding = rabbit cuticle bleeding study; type: in vivo; conditions: 1.5 mg/kg i.v. bolus plus infusion
Procedure: All procedures performed on these animals were in accordance with regulations and established guidelines and were reviewed and approved by an Institutional Animal Care and Use Committee or through an ethical review process. Rabbits were anesthetized according to established protocols. After anesthesia and cannulation etc., both front paws were shaved to remove fur that would otherwise contaminate saline and wick it out of the tube. Pre dosing bleeds were performed on the middle digit of the left front paw. Post dosing bleeds were performed on the same digit on the right front paw. There were four dosing groups of 10 animals each. […] Furthermore, for the Rivaroxaban treated animals, the i.v. bolus injection was supplemented by a continuous i.v. infusion of Rivaroxaban to maintain proper dosing throughout the duration of the study due to short half-life concerns. Nails were transilluminated with white light to visualize the quick and cut with a razor blade so as to transect the cuticle approximately 1 mm proximal to the apex of the quick. The nail was then immediately immersed in a saline solution in 10×75 mm 3 ml polystyrene (clear) tube. The tube with saline was stored at 37° C. before the cut. The nail was kept in the solution and time to cessation of flow was measured. […] At the end of the blood collection the tube is capped and inverted 5 times and centrifuged at 200 to 250×g for 15 min. The blood cell pellet was resuspended in 3 mL erythrocyte lysis buffer (8.3 g/L NH4Cl, 1.0 g/LKHCO3, and 0.037 g/L EDTA in water). After at least 15 min of lysis time, hemoglobin (Hb) concentration was measured at OD 575 nm using a Spectrophotometer) and expressed as arbitrary absorbance units. As indicated above, baseline cuticle bleeding times were performed prior to dosing. […] 30 minutes later a second cuticle cut was made and bleeding times recorded and blood loss measured. […]

[1] = test system: rabbit model of venous thromboembolism (VTE); assay: rabbit model of venous thromboembolism (VTE); type: in vivo
Text: All procedures performed on these animals were in accordance with regulations and established guidelines and were reviewed and approved by an Institutional Animal Care and Use Committee or through an ethical review process. Rabbits were anesthetized according to established protocols. […] Furthermore, for the Rivaroxaban treated animals, the i.v. bolus injection was supplemented by a continuous i.v. infusion of Rivaroxaban to maintain proper dosing throughout the duration of the study due to short half-life concerns. For all treatment groups, 30 minutes after bolus injection, a sheath of the appropriate size was placed in the left femoral vein. Then a wire of approximately 14 cm with 8 strands of cotton thread attached to it (each 3 cm long) was inserted into the femoral vein. Fluoroscopy was used for guidance of the wire with the threads towards the target area in the vena cava. […] After 90 minutes the device was removed by surgical dissection, cut from the wire, and the clot-containing cotton threads were weighed after having been blotted dry. Prior to IgG dosing, and also prior to surgical removal of threads, a blood sample was drawn for preparation of serum (PK) and plasma (for PD biomarkers APTT and PT).

[2] = 1.5 mg/kg i.v. bolus plus continuous infusion

total blood loss following cuticle cutting (rabbit cuticle bleeding): significantly increased total blood loss
SMILES: O=C(NC[C@H]1CN(c2ccc(N3CCOCC3=O)cc2)C(=O)O1)c1ccc(Cl)s1 [Rivaroxaban]
time to clotting in APTT coagulation assay (rabbit cuticle bleeding): significant prolongation in time to clotting
time to clotting in PT coagulation assay (rabbit cuticle bleeding): significant prolongation in time to clotting
any read outs measured (thrombus weight, APTT, PT) ([1]; 0.045 mg/kg i.v. bolus plus continuous infusion): No effects
thrombus/clot weight [1, 2]: decreased thrombus/clot weight
time to clotting in APTT assay [1, 2]: prolonged time to clotting
time to clotting in PT assay [1, 2]: prolonged time to clotting
